{"source": "ChEMBL document CHEMBL1811810", "about": "“N-substituted homopiperazine barbiturates as gelatinase inhibitors” (Bioorg Med Chem, 2011)", "tested_on": "Caco-2", "assay": "cells", "settings": "Homo sapiens, Caco-2, read-out: INH", "description": "Inhibition of cell invasion of human Caco2 cells at 100 nM by cell invasion assay"}
{"compound": "CN(C)c1cccc2c(S(=O)(=O)N3CCCN(C4(c5ccc(Oc6ccccc6)cc5)C(=O)NC(=O)NC4=O)CC3)cccc12", "values": [{"measurement": "inhibition at 0.1 µM", "value": 20.1, "unit": "%"}]}
